Measurements published in PMC11527646, “Pharmacological blockade of the mast cell MRGPRX2 receptor supports investigation of its relevance in skin disorders” (Frontiers in Immunology, 2024).

Legend:
Format in all cases: cell-based
[1] = target: T1, mouse MrgB2 (Mus musculus, UniProt Q3KNA1); test: Calcium mobilization in BacMam-transduced U2OS cells
T1 construct: expressed in transfected cells; host or cells: U2OS transduced with BacMam virus
Description: (§1) Cell culture reagents were purchased from Thermo Fisher Scientific unless otherwise stated. The LAD2 human mast cell line was in-licensed from National Institutes of Health (NIH) and routinely cultured in StemPro™-34 SFM with nutrient supplement, 1× GlutaMax™, and recombinant human SCF (100 ng/mL). HEK293-MRGPRX2/Gα15 cells were cultured in DMEM containing 10% FBS. The parental U2OS cells were culture in DMEM/F-12 containing 10% FBS. BacMam virus containing human MRGPRX2 gene or animal orthologs [mouse Mrgprb2 (Gene ID: 243979), rat Mrgprb3 (Gene ID: 691194), dog MRGPRX2 (Gene ID: 102125889), cynomolgus monkey MRGPRX2 (Gene ID: 692078), and rhesus monkey MRGPRX2] were used to transduce U2OS cells for transient expression.
(§2) Supplemental Table 1: Compound A and Compound B are human MRGPRX2 selective antagonists. Antagonist and agonist activities of the two compounds were determined in calcium mobilization assays for human MRGPRX2 and its animal orthologs from various species. The activities were measured in […] (Molecular Devices) instrument using U2OS cells transduced with BacMam virus for transient expression of the relevant receptors. Data are presented as mean ± SEM when applicable.
(§3) Compound A and Compound B up to the highest concentration (100 µM) tested. In the antagonist […]
(§4) Compound A and B, respectively. […]
(§5) Taking together, […]

[2] = system: rat MrgB3; test: as above
Description: as §1, §2, §3, §4, §5

[3] = system: dog MRGPRX2 (beagle & boxer); test: as above
Description: as §1, §2, §3, §4, §5

[4] = target: T2, A2A receptor (ADORA2A) (Homo sapiens, UniProt P29274); test: GPCR selectivity cellular assay; details: Agonism; read-out: Agonist Activity (EC50)
T2 construct: expressed in transfected cells
T2 sequence (P29274 whole entry): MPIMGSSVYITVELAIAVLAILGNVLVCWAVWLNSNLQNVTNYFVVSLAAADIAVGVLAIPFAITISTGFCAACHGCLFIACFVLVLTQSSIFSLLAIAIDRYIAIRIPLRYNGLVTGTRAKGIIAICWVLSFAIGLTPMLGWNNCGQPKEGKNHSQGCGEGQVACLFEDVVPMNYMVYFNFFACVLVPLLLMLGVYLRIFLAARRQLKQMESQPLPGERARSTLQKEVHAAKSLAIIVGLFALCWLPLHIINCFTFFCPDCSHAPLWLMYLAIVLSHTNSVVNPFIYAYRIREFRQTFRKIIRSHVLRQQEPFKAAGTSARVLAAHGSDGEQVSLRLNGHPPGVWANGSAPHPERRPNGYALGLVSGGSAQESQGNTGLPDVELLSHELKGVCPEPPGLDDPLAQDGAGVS

[5] = target: T3, D2 receptor (DRD2) (Homo sapiens, UniProt P14416); test: GPCR selectivity cellular assay
T3 construct: expressed in transfected cells
T3 sequence (P14416 whole entry): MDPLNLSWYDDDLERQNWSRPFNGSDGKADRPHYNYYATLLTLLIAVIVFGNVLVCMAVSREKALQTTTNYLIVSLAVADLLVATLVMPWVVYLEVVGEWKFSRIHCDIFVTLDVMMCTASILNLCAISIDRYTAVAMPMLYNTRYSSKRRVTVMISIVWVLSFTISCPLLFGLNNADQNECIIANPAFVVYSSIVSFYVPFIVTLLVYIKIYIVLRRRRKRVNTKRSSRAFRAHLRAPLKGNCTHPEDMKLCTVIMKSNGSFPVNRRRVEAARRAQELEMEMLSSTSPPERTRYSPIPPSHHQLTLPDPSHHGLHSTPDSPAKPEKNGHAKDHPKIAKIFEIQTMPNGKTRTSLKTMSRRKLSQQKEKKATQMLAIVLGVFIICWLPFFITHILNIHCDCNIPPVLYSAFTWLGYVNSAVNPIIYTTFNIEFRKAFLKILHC
Description: (§6) tagonists, with little activity detected on other GPCRs. Antagonist and/or agonist activities of the two compounds were determined in cellular assays for 20 human G-protein coupled receptors (GPCR) beside MRGPRX2. Recombinant over-expression systems in mammalian cells were used for all assays listed in this table. […]
(§7) reported as ‘>’ the highest compound concentration allowed in that assay.
(§8) GPCR Target Name Gene symbol Mode of Activity Compound-A Compound-B […]
(§9) Agonist Activity (EC50 ) or Antagonist Activity (IC50 ), nM […]

[6] = target: T4, H3 receptor (HRH3) (Homo sapiens, UniProt Q9Y5N1); test: GPCR selectivity cellular assay; details: Antagonism; read-out: Antagonist Activity (IC50)
T4 construct: expressed in transfected cells
T4 sequence (Q9Y5N1 whole entry): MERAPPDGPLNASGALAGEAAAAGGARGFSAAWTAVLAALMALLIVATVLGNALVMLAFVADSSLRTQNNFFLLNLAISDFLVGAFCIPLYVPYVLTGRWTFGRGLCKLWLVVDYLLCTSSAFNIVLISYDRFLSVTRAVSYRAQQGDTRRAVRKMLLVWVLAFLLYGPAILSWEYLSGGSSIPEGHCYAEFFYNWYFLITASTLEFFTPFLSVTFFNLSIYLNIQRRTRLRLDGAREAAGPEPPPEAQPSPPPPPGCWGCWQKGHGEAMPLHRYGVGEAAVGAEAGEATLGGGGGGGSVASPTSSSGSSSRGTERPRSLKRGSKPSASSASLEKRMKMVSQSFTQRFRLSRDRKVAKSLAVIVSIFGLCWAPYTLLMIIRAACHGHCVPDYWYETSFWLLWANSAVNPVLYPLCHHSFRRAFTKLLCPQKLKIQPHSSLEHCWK
Description: as §6, §7, §8, §9

[7] = target: µ-Receptor (OPRM1) (Homo sapiens, UniProt P35372); test: GPCR selectivity cellular assay; details: Agonism; read-out: Agonist Activity (EC50)
µ-Receptor (OPRM1), sequence (P35372 whole entry): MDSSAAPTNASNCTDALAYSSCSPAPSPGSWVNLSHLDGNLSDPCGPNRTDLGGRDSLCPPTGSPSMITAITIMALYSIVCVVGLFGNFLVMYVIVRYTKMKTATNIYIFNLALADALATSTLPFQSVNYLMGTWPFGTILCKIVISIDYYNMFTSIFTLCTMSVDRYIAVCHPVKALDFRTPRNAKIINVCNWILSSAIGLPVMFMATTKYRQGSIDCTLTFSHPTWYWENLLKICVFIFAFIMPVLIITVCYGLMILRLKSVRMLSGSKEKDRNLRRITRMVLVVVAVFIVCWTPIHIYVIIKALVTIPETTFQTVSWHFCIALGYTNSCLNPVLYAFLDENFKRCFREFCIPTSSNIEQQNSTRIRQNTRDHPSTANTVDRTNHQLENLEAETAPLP
Description: as §6, §7, §8, §9

[8] = target: T5, a2C-Adrenoreceptor (ADRA2C) (Homo sapiens, UniProt P18825); test: GPCR selectivity cellular assay; details: Agonism; read-out: Agonist Activity (EC50)
T5 construct: expressed in transfected cells
T5 sequence (P18825 whole entry): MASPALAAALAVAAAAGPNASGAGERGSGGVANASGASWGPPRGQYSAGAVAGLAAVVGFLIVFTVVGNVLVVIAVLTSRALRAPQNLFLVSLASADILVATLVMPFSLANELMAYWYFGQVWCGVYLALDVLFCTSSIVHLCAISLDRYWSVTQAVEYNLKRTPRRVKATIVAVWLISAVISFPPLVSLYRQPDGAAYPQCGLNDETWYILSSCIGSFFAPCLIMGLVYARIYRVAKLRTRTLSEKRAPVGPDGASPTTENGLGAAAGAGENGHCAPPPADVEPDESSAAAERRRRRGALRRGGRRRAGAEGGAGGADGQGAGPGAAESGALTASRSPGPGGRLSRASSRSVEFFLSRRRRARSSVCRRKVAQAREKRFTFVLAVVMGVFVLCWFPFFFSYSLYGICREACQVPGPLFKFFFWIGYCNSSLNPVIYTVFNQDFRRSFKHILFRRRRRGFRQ
Description: as §6, §7, §8, §9

[9] = target: T6, ß2-Adrenoreceptor (ADRB2) (Homo sapiens, UniProt P07550); test: GPCR selectivity cellular assay
T6 construct: expressed in transfected cells
T6 sequence (P07550 whole entry): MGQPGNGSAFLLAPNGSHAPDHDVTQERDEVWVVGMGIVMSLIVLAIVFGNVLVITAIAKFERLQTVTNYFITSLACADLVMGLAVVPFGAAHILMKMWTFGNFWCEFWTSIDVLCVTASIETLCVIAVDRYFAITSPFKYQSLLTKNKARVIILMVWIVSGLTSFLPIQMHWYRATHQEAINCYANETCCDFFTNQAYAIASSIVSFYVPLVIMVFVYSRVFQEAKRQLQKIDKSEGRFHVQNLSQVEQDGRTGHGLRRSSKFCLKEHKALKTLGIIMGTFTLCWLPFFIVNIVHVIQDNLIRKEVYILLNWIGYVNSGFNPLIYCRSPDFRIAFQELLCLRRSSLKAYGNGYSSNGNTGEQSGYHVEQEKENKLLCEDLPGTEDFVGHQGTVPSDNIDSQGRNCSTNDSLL
Description: as §6, §7, §8, §9

[10] = Agonism, read-out: Agonist Activity (EC50)
[11] = Antagonism, read-out: Antagonist Activity (IC50)

T1 sequence (Q3KNA1 whole entry): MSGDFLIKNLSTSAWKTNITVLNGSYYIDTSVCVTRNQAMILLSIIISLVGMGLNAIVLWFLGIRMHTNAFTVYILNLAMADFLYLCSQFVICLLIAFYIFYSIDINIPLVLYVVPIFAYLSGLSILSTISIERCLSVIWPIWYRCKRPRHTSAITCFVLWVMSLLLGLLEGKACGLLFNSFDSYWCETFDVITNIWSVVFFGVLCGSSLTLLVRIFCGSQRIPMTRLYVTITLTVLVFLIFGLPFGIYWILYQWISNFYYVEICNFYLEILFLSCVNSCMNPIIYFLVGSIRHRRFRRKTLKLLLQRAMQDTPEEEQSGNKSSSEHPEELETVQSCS

| SMILES | Agonist and antagonist activity [1] | Agonist and antagonist activity [2] | Agonist and antagonist activity [3] | EC50 [4] [µM] | EC50 [5, 10] [µM] | IC50 [5, 11] [µM] | IC50 [6] [µM] | EC50 [7] [µM] | EC50 [8] [µM] | EC50 [9, 10] [µM] | IC50 [9, 11] [µM] |
| --- | --- | --- | --- | --- | --- | --- | --- | --- | --- | --- | --- |
| C[C@@H](C(=O)Nc1cnc(Oc2ccc(F)cc2F)cn1)N1CCC(F)(F)[C@@H](c2cc[n+]([O-])cc2)C1 [Compound B] | No agonist nor antagonist activity | No agonist nor antagonist activity | No agonist nor antagonist activity | > 100 | > 100 | > 100 | > 50 | > 100 | > 100 | > 100 | > 100 |
| CC1(C)C(C(=O)Nc2ccccn2)C1(C)C [Compound A] | No agonist nor antagonist activity | No agonist nor antagonist activity | No agonist nor antagonist activity | > 100 |  |  |  |  |  |  |  |
